In US9346799B2, “Useful combinations of monobactam antibiotics with beta-lactamase inhibitors” (Basilea Pharmaceutica AG, priority 2005, dated 2016):

Legend:
Experiment in all cases: MIC by broth microdilution (NCCLS M7-A5)
[1] = test system: Enterobacter cloacae B1102; details: E. cloacae B1102
[2] = test system: Klebsiella pneumoniae CF104
[3] = test system: Stenotrophomonas malthophilia 1AC736; details: Stenotrophomonas maltophilia 1AC736
Enterobacter cloacae MRW = details: E. cloacae MRW
Enterobacter cloacae P99 = test system: Enterobacter cloacae P99
Acinetobacter sp. J2 = test system: Acinetobacter sp. J2
[4] = test system: Enterobacter aerogenes Zayakosky; details: E. aerogenes Zayakosky
[5] = test system: Enterobacter cloacae ATCC13047/CRO-R; details: E. cloacae ATCC13047/CRO-R
[6] = test system: Enterobacter aerogenes B1; details: E. aerogenes B1
[7] = test system: Pseudomonas aeruginosa MK1184
[8] = test system: Enterobacter cloacae M4018; details: E. cloacae M4018
[9] = test system: Pseudomonas aeruginosa 1973E
Serratia marcescens S6 = test system: Serratia marcescens S6
[10] = + compound 323 and clavulanate, 4 mg/L each
[11] = + 102 + clavulanate, 4 mg/L each
[12] = + 103 + clavulanate, 4 mg/L each
[13] = + 111 + clavulanate, 4 mg/L each
[14] = + 202 + clavulanate, 4 mg/L each
[15] = + 206 + clavulanate, 4 mg/L each
[16] = + 323 + clavulanate, 4 mg/L each
[17] = + 324 + clavulanate, 4 mg/L each

CC1C(NC(=O)C(=NOCc2cc(=O)c(O)cn2O)c2csc(N)n2)C(=O)N1S(=O)(=O)O (centres unmarked) [Compound 1]
8 mg/L: Minimal Inhibitory Concentration of antibiotic [1, 10] | Minimal Inhibitory Concentration of antibiotic [5, 10] | Minimal Inhibitory Concentration of antibiotic ([8]; + compound 206 at fixed 4 mg/L)
1 µg/mL: MIC of antibiotic [2, 11] | MIC of antibiotic ([2]; + 102 + sulbactam, 4 mg/L each) | MIC of antibiotic ([2]; + 323 + sulbactam, 4 mg/L each) | MIC of antibiotic [2, 17] | MIC of antibiotic ([3]; antibiotic alone) | MIC of antibiotic (Acinetobacter sp. J2; Acinetobacter baumannii J2, + 323 + sulbactam, 4 mg/L each) | MIC of antibiotic (Serratia marcescens S6; [17]) | MIC of antibiotic (Serratia marcescens S6; antibiotic alone, no inhibitor)
2 mg/L: Minimal Inhibitory Concentration of antibiotic [8, 10]
32 mg/L: Minimal Inhibitory Concentration of antibiotic ([1]; + clavulanate at fixed 4 mg/L) | Minimal Inhibitory Concentration of antibiotic (Enterobacter cloacae MRW; + clavulanate at fixed 4 mg/L) | Minimal Inhibitory Concentration of antibiotic (Enterobacter cloacae MRW; + compound 501 at fixed 4 mg/L) | Minimal Inhibitory Concentration of antibiotic ([6]; antibiotic alone) | Minimal Inhibitory Concentration of antibiotic ([8]; antibiotic alone)
>32 mg/L: Minimal Inhibitory Concentration of antibiotic ([1]; antibiotic alone) | Minimal Inhibitory Concentration of antibiotic (Enterobacter cloacae MRW; antibiotic alone) | Minimal Inhibitory Concentration of antibiotic ([4]; + clavulanate at fixed 4 mg/L) | Minimal Inhibitory Concentration of antibiotic ([4]; + compound 206 at fixed 4 mg/L) | Minimal Inhibitory Concentration of antibiotic ([4]; + compound 501 at fixed 4 mg/L) | Minimal Inhibitory Concentration of antibiotic ([4]; antibiotic alone) | Minimal Inhibitory Concentration of antibiotic ([5]; + clavulanate at fixed 4 mg/L) | Minimal Inhibitory Concentration of antibiotic ([5]; + compound 206 at fixed 4 mg/L) | Minimal Inhibitory Concentration of antibiotic ([5]; + compound 501 at fixed 4 mg/L) | Minimal Inhibitory Concentration of antibiotic ([5]; antibiotic alone) | Minimal Inhibitory Concentration of antibiotic ([6]; + clavulanate at fixed 4 mg/L) | Minimal Inhibitory Concentration of antibiotic ([6]; + compound 501 at fixed 4 mg/L) | Minimal Inhibitory Concentration of antibiotic ([8]; + clavulanate at fixed 4 mg/L)
2 µg/mL: MIC of antibiotic [2, 14] | MIC of antibiotic [2, 16] | MIC of antibiotic ([3]; + 102 + sulbactam, 4 mg/L each) | MIC of antibiotic (Acinetobacter sp. J2; Acinetobacter baumannii J2, + 102 + sulbactam, 4 mg/L each) | MIC of antibiotic [9, 11]
0.125 µg/mL: MIC of antibiotic [3, 11] | MIC of antibiotic [3, 12] | MIC of antibiotic [3, 13] | MIC of antibiotic [3, 14] | MIC of antibiotic [3, 15] | MIC of antibiotic [3, 16] | MIC of antibiotic ([3]; + 323 + sulbactam, 4 mg/L each) | MIC of antibiotic [3, 17]
<0.06 µg/mL: MIC of antibiotic [2, 13] | MIC of antibiotic (Acinetobacter sp. J2; Acinetobacter baumannii J2, + 501 4 mg/L)
4 µg/mL: MIC of antibiotic (Enterobacter cloacae P99; [11]) | MIC of antibiotic (Enterobacter cloacae P99; [13]) | MIC of antibiotic (Enterobacter cloacae P99; [16]) | MIC of antibiotic (Enterobacter cloacae P99; + 323 + sulbactam, 4 mg/L each) | MIC of antibiotic (Enterobacter cloacae P99; [17]) | MIC of antibiotic (Acinetobacter sp. J2; Acinetobacter baumannii J2, + 102 + clavulanate, 4 mg/L each) | MIC of antibiotic (Acinetobacter sp. J2; Acinetobacter baumannii J2, + 111 + clavulanate, 4 mg/L each) | MIC of antibiotic (Acinetobacter sp. J2; Acinetobacter baumannii J2, + 202 + clavulanate, 4 mg/L each) | MIC of antibiotic (Acinetobacter sp. J2; Acinetobacter baumannii J2, + 206 + clavulanate, 4 mg/L each) | MIC of antibiotic [7, 11] | MIC of antibiotic ([7]; + 323 + sulbactam, 4 mg/L each) | MIC of antibiotic ([9]; + 102 + sulbactam, 4 mg/L each) | MIC of antibiotic [9, 12] | MIC of antibiotic [9, 13] | MIC of antibiotic [9, 14] | MIC of antibiotic [9, 15] | MIC of antibiotic ([9]; + 323 + sulbactam, 4 mg/L each) | MIC of antibiotic (Serratia marcescens S6; [15]) | MIC of antibiotic (Serratia marcescens S6; + 501 4 mg/L) | MIC of antibiotic (Serratia marcescens S6; + clavulanate 4 mg/L)
8 µg/mL: MIC of antibiotic (Enterobacter cloacae P99; + 102 + sulbactam, 4 mg/L each) | MIC of antibiotic (Enterobacter cloacae P99; [15]) | MIC of antibiotic (Acinetobacter sp. J2; Acinetobacter baumannii J2, + 103 + clavulanate, 4 mg/L each) | MIC of antibiotic [7, 12] | MIC of antibiotic [7, 13] | MIC of antibiotic [7, 14] | MIC of antibiotic [7, 17] | MIC of antibiotic [9, 16] | MIC of antibiotic [9, 17] | MIC of antibiotic ([9]; + 501 4 mg/L) | MIC of antibiotic ([9]; + clavulanate 4 mg/L)
4 mg/L: Minimal Inhibitory Concentration of antibiotic (Enterobacter cloacae MRW; [10]) | Minimal Inhibitory Concentration of antibiotic [6, 10]
16 mg/L: Minimal Inhibitory Concentration of antibiotic ([1]; + compound 206 at fixed 4 mg/L) | Minimal Inhibitory Concentration of antibiotic ([1]; + compound 501 at fixed 4 mg/L) | Minimal Inhibitory Concentration of antibiotic (Enterobacter cloacae MRW; + compound 206 at fixed 4 mg/L) | Minimal Inhibitory Concentration of antibiotic [4, 10] | Minimal Inhibitory Concentration of antibiotic ([6]; + compound 206 at fixed 4 mg/L) | Minimal Inhibitory Concentration of antibiotic ([8]; + compound 501 at fixed 4 mg/L)
16 µg/mL: MIC of antibiotic (Enterobacter cloacae P99; [14]) | MIC of antibiotic (Enterobacter cloacae P99; + 501 4 mg/L) | MIC of antibiotic (Acinetobacter sp. J2; Acinetobacter baumannii J2, + 323 + clavulanate, 4 mg/L each) | MIC of antibiotic [7, 16] | MIC of antibiotic ([9]; antibiotic alone)
0.25 µg/mL: MIC of antibiotic [2, 15] | MIC of antibiotic ([3]; + 501 4 mg/L) | MIC of antibiotic (Serratia marcescens S6; [11]) | MIC of antibiotic (Serratia marcescens S6; [12]) | MIC of antibiotic (Serratia marcescens S6; [13]) | MIC of antibiotic (Serratia marcescens S6; [16])
32 µg/mL: MIC of antibiotic (Enterobacter cloacae P99; [12]) | MIC of antibiotic (Enterobacter cloacae P99; + clavulanate 4 mg/L) | MIC of antibiotic (Acinetobacter sp. J2; Acinetobacter baumannii J2, + 324 + clavulanate, 4 mg/L each) | MIC of antibiotic ([7]; + 102 + sulbactam, 4 mg/L each)
>32 µg/mL: MIC of antibiotic ([2]; antibiotic alone) | MIC of antibiotic (Enterobacter cloacae P99; antibiotic alone) | MIC of antibiotic (Acinetobacter sp. J2; Acinetobacter baumannii J2, + clavulanate 4 mg/L) | MIC of antibiotic (Acinetobacter sp. J2; Acinetobacter baumannii J2, antibiotic alone) | MIC of antibiotic [7, 15] | MIC of antibiotic ([7]; + 501 4 mg/L) | MIC of antibiotic ([7]; + clavulanate 4 mg/L) | MIC of antibiotic ([7]; antibiotic alone) | MIC of antibiotic (Serratia marcescens S6; antibiotic alone)
>22 µg/mL: MIC of antibiotic (Acinetobacter sp. J2; Acinetobacter sp. J2, antibiotic alone, no inhibitor)
0.5 µg/mL: MIC of antibiotic [2, 12] | MIC of antibiotic ([2]; + 501 4 mg/L) | MIC of antibiotic ([2]; + clavulanate 4 mg/L) | MIC of antibiotic ([3]; + clavulanate 4 mg/L) | MIC of antibiotic (Serratia marcescens S6; + 102 + sulbactam, 4 mg/L each) | MIC of antibiotic (Serratia marcescens S6; [14]) | MIC of antibiotic (Serratia marcescens S6; + 323 + sulbactam, 4 mg/L each)
